Assays:
[1] = tested on: TGFβ1-induced expression of α-SMA protein in NHLF; assay: α-SMA ELISA in TGFβ1-activated normal human lung fibroblasts; format: cell-based; settings: TGFβ1 1 ng/ml, 48 h
Experimental: Serum-deprived NHLF were preincubated for 1 hour with RM-5061 before the activation with the profibrogenic cytokine TGFβ1 (1 ng/ml). After 48 hours of incubation, the expression of α-SMA was measured by ELISA. The obtained values were transformed into percentage inhibition over TGFβ1 control. Data are presented as mean (quadruplicates)±standard error of the mean (SEM). Statistical analyses were performed by kruskal-Wallis test followed by Dunn's multiple comparison tests, using GraphPad Prism 5.02 software. [*: p<0.05; **: p<0.01; ***: p<0.001 (comparison versus TGFβ1 1 ng/mL group)]. The curve fitting and the calculation of half maximal inhibitory concentration (IC50) were performed with XLFit software 5.3.1.3.
(§1) Cpd.5 was added to serum-deprived lung fibroblasts (NHLF) 1 hour before the activation with TGFβ1 (1 ng/ml). After 48 hours of incubation, the expression of α-SMA was measured by ELISA. The obtained values were transformed into percentage inhibition over TGFβ1 control. Data are presented as mean (triplicates)±standard deviation (SD). Statistical analyses were performed by one-way ANOVA followed by Bonferroni post-hoc tests, using Sigma Plot 11.0 software. [*: p<0.05; **: p<0.01; ***: p<0.001 (comparison versus TGFβ1 1 ng/mL group)].
The Normal Human Lung Fibroblasts (NHLF) (Lonza) were cultured in Fibroblast Basal Medium (FBM) (Lonza cat #CC-3131) that was supplemented with FGM-2 SingleQuots™ Kit (Lonza cat #CC-3132). The complete medium contains 2% fetal bovine serum. For the activation experiments with TGFβ1, the NHLF were plated at a density of 5×10^3 cells per well in 96-well plates. The next day, cell-culture medium was removed, and cells were washed with PBS (Invitrogen cat #14190). NHLF were deprived for 24 hours in serum-free, insulin-free and rhFGF-B-free medium. […]
(§2) The level of α-SMA was measured using a Sandwich ELISA. […]

[2] = tested on: TGFβ1-induced expression of α-SMA protein in human cardiac fibroblasts (NHCF); assay: α-SMA ELISA in TGFβ1-activated normal human cardiac fibroblasts; format: cell-based; settings: TGFβ1 3 ng/ml, 48 h
Experimental: as §1, with “serum-deprived cardiac” for “serum-deprived lung”, “fibroblasts (NHCF)” for “fibroblasts (NHLF)”, “TGFβ1 (3” for “TGFβ1 (1”, “TGFβ1 3” for “TGFβ1 1”
The Normal Human Cardiac Fibroblasts (ventricle) (NHCF-V) (Lonza) were isolated from normal, adult heart tissue. Cells were cultured in Fibroblast Basal Medium (FBM) (Lonza cat #CC-3131) that was supplemented with FGM™-3 BulletKit™ kit (Lonza cat #CC-4525). The complete medium contains 10% fetal bovine serum. For the activation experiments with TGFβ1, the NHCF-V were plated at a density of 6×10^3 cells per well in 96-well plates. The next day, cell-culture medium was removed, and cells were washed with PBS (Invitrogen cat #14190). NHCF were deprived for 24 hours in serum-free, insulin-free and rhFGF-B-free medium. […]
as §2

Row | Compound | effect on TGFβ1-induced α-SMA in NHLF [1] | effect on TGFβ1-induced α-SMA in human cardiac fibroblasts [2] | IC50 α-SMA in NHLF ([1]; compared with IC50 in human HSC)
1 | [2H]C([2H])([2H])C(=O)Oc1ccccc1C(=O)Nc1ncc([N+](=O)[O-])s1 [Cpd.5, 2-[(5-nitro-1,3-thiazol-2-yl)carbamoyl]phenyl (d3)ethanoate] | inhibits | inhibits | 
2 | CC(C)(C)[C@H](N)C(=O)Oc1ccccc1C(=O)Nc1ncc([N+](=O)[O-])s1 [RM-5061, (S)-2-(5-nitrothiazol-2-ylcarbamoyl)phenyl 2-amino-3,3-dimethylbutanoate] | inhibits |  | comparable IC50

From patent publication US20170290814A1, “METHODS OF TREATMENT OF CHOLESTASIS AND FIBROSIS” (GENFIT, priority 2016, published 2017)
